In test [1] the target is T1, Tyrosine-protein kinase Lck (Homo sapiens, UniProt P06239).
Description: Inhibition of p56 Lck tyrosine kinase at 5 uM ATP
For test [2], the target named is Vascular endothelial growth factor receptor 2 (Homo sapiens, UniProt P35968).
Description: Inhibition of Vascular endothelial growth factor receptor 2 at 5 uM ATP
In a further test the target is Protein kinase C (PKC). Nature of the test: Inhibition of PKC. Type of test: protein assay.
Test [3] relates to Jurkat. The experiment in a line: Inhibition of PMA stimulated IL-2 production in Jurkat cells. Particulars: Homo sapiens. The class given is functional, cell-based.
Test [4] addresses Proto-oncogene tyrosine-protein kinase Src (Homo sapiens, UniProt P12931).
Description: Inhibition of src at 5 mM ATP
The target of test [5] is T1, Tyrosine-protein kinase Lck. This is another data set of the same source.
Description: Inhibition of p56 Lck tyrosine kinase catalytic domain at 1 mM ATP
The target in test [6] is T2, Tyrosine-protein kinase ZAP-70 (Homo sapiens, UniProt P43403).
T2 sequence (P43403 whole entry): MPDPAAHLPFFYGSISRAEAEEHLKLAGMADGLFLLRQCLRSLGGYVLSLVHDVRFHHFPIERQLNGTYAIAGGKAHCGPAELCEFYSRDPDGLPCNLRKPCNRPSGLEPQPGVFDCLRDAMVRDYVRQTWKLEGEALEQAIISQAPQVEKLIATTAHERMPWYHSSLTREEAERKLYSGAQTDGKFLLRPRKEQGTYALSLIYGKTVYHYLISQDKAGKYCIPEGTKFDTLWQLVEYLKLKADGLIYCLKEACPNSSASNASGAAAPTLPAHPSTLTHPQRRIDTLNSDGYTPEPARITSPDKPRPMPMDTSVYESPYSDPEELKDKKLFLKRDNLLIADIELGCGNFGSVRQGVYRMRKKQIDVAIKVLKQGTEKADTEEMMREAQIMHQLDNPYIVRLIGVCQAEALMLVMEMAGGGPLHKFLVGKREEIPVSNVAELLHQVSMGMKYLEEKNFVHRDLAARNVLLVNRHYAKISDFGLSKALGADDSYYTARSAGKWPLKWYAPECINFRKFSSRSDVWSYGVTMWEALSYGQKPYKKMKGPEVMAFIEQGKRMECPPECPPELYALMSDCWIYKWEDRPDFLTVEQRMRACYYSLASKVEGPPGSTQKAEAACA
The experiment in a line: Inhibition of Zap 70.

The test system of test [7] is Jurkat. Nature of the test: Inhibition of anti-CD3 stimulated IL-2 production by Jurkat cells. The class given is functional, cell-based. The settings on record: Homo sapiens.
The target in test [8] is T1, Tyrosine-protein kinase Lck. This is another data set of the same source.
Description: Inhibition of p56 Lck tyrosine kinase catalytic domain at 5 uM ATP
For test [9] the target is unchanged. The source holds these as a separate data set.
Description: Inhibition of p56 Lck tyrosine kinase at 1 mM ATP
Test [10] deals with Cyclin-dependent kinase 1/cyclin B (Homo sapiens, UniProt P06493). The experiment in a line: Inhibition of CDC2/CyB. The class given is protein-complex assay.
Test [11] has as its system Jurkat. The experiment in a line: Inhibition of MLR stimulated IL-2 production in Jurkat cells. Type of test: functional, cell-based. The settings on record: Homo sapiens.
The target in a further test is Angiopoietin-1 receptor (Homo sapiens, UniProt Q02763).
Angiopoietin-1 receptor, sequence (Q02763 whole entry): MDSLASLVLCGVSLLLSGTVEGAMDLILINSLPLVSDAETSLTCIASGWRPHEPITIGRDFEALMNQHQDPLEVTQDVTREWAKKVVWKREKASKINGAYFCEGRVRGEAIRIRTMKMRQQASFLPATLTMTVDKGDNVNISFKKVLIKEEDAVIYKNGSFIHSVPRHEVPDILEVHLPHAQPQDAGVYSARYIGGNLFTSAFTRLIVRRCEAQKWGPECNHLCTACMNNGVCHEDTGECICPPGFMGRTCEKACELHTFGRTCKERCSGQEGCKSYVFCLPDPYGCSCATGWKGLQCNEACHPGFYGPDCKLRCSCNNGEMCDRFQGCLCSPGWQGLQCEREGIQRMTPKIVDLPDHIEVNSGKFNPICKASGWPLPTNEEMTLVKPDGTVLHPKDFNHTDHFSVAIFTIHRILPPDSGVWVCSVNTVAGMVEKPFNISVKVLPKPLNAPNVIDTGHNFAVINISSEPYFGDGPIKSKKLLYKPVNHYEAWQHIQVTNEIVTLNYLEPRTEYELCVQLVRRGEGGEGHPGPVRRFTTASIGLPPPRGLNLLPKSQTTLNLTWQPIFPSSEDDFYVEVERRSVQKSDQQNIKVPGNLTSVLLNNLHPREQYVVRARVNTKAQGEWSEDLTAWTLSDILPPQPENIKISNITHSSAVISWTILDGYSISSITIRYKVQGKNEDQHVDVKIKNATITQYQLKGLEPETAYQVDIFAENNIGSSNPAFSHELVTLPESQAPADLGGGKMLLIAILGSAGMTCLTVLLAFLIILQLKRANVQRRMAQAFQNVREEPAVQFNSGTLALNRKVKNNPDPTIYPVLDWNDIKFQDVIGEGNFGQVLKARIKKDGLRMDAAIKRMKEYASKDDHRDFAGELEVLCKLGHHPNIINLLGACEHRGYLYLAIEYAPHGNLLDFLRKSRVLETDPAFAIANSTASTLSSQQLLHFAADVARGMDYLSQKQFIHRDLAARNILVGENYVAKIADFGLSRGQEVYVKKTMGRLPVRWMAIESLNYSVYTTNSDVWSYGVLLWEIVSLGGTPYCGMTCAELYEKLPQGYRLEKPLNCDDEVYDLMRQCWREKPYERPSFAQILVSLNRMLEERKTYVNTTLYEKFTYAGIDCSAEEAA

SMILES strings stand for the structures. pIC50: −log10 of the molar value.

T1 sequence (P06239 whole entry): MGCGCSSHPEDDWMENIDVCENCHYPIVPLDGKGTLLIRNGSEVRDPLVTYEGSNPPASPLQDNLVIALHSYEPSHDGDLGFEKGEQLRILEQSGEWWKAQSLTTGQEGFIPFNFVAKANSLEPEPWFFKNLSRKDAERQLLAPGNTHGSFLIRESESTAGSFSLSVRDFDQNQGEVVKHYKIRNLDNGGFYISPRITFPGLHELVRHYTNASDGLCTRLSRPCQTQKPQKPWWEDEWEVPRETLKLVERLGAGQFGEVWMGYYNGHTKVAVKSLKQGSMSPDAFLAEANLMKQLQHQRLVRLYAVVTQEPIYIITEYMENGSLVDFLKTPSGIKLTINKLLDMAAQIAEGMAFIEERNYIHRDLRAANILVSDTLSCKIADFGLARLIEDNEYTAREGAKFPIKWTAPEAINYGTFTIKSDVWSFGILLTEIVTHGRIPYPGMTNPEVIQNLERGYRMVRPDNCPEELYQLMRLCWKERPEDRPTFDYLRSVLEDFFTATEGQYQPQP
Vascular endothelial growth factor receptor 2, sequence (P35968 whole entry): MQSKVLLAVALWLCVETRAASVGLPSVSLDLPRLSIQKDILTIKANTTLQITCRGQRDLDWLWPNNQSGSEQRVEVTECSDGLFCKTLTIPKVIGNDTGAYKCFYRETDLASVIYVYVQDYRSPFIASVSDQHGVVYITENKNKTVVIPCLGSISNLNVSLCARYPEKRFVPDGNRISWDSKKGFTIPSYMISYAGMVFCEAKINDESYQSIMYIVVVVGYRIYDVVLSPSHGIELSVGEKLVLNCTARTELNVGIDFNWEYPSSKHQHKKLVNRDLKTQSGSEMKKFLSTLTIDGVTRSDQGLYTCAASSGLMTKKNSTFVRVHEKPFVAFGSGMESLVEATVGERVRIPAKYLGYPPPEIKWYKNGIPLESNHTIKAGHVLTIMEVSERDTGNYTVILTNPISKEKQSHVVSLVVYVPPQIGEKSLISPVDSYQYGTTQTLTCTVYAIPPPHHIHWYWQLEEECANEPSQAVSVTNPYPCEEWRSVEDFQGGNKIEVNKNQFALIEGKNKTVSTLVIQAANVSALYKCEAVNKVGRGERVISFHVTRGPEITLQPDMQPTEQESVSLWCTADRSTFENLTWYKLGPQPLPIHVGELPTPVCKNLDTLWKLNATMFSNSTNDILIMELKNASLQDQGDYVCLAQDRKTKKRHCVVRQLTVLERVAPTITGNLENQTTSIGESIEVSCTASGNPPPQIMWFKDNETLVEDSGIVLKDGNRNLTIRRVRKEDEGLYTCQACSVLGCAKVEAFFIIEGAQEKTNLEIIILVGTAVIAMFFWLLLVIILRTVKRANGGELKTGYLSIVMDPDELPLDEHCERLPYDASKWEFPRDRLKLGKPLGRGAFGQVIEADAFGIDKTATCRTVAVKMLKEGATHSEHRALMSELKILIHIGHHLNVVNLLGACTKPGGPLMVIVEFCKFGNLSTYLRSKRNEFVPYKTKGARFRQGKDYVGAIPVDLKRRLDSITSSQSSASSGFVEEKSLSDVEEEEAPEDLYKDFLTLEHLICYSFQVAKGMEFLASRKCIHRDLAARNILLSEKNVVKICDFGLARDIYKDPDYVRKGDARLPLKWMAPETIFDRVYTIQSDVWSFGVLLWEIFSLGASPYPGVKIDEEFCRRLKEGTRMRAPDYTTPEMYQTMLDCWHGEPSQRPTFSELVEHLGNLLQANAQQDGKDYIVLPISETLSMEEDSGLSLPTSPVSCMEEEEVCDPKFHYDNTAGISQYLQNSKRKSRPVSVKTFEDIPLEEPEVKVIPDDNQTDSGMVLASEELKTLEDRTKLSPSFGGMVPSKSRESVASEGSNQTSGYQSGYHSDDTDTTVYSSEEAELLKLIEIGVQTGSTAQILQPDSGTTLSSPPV
Proto-oncogene tyrosine-protein kinase Src, sequence (P12931 2-536 limits assumed): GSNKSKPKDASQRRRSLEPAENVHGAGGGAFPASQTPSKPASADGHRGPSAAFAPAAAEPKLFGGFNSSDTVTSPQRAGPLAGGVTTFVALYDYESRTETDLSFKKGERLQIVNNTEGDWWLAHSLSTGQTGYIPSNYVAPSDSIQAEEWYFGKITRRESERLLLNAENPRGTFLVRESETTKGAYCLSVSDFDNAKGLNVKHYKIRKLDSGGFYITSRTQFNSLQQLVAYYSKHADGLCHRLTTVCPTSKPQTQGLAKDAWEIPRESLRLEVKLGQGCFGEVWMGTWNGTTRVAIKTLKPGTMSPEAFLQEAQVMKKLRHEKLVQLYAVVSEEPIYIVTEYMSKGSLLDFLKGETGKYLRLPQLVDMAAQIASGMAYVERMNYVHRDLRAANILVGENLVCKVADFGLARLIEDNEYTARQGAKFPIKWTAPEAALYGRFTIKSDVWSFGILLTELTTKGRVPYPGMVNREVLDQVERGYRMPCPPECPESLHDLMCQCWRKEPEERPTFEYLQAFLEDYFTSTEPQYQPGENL
Description for Angiopoietin-1 receptor: Inhibition of tie-2 at 5 uM ATP

On to `Nc1ncnc2c1c(-c1ccccc1Oc1ccccc1)cn2C1CCCC1`, for which the results for the pIC50 in test [1] and in test [2] were 6.41 and less than 4.30, respectively.

`CC(C)(C)n1cc(-c2ccc(Cl)cc2)c2c(N)ncnc21` showed a pIC50 in test [1] of 6.66.

For `Nc1ncnc2c1c(-c1ccc(Oc3ccccc3)cc1)cn2C1CCCC1`, the pIC50 in test [1] is more than 9.00; with Jurkat [3], 5.82; in [4], 7.15; in [5], 5.97; in test [6] it was less than 4.30; in test [2], 5.80. Moreover, the pIC50 with Jurkat [7] is 7.40; in test [8], 8.70; in test [9], 7.80; in test [10], less than 4.30. On Protein kinase C (PKC), this compound yielded an IC50 of more than 33000 nM.

Consider `Nc1ncnc2c1c(-c1cccc(Oc3ccccc3)c1)cn2C1CCCC1`, for which the pIC50 in test [4] was less than 6.00.

Consider `Cc1ccc(-c2nn(C(C)(C)C)c3ncnc(N)c23)cc1`, for which the pIC50 was 6.40 in the test on Jurkat [11] and 5.92 in the test on Jurkat [7].

Regarding `Nc1ncnc2c1c(-c1ccc(Oc3ccccc3)cc1)cn2C1CCC(O)C1` (stereo unspecified), the pIC50 was 7.55 in the test on Jurkat [11]; less than 4.48 against Protein kinase C (PKC); 5.52 with Jurkat [3]; 7.06 in test [4]; 7.23 against Angiopoietin-1 receptor; less than 4.30 in [6]. Besides, the figures for the pIC50 in test [2] and in [10] were 7.07 and less than 4.30, respectively.

In turn, `c1ccc(Oc2ccc(Nc3ncnc4ccccc34)cc2)cc1` gave a pIC50 in test [1] of more than 8.10.

Values taken from ChEMBL document CHEMBL1132739, “Pyrrolo[2,3-d]pyrimidines containing an extended 5-substituent as potent and selective inhibitors of lck I” (Bioorg Med Chem Lett, 2000).
